In ChEMBL document CHEMBL5576041, “13-oxyingenol dodecanoate derivatives induce mitophagy and ferroptosis through targeting TMBIM6 as potential anti-NSCLC agents” (Eur J Med Chem, 2024):
Activity calls are given as the source filed them. No cut-off for these calls is given here.

Tests used:
[1] = molecular target: Non-selective voltage-gated ion channel VDAC1 (Homo sapiens) (UniProt P21796); assay: Activation of VDAC1 channel in human A549 cells assessed as increase in mitochondrial Ca2+ endocytosis by staining based analysis; type: cell-based; conditions: filed as opener
Non-selective voltage-gated ion channel VDAC1 (Homo sapiens), sequence (P21796 whole entry): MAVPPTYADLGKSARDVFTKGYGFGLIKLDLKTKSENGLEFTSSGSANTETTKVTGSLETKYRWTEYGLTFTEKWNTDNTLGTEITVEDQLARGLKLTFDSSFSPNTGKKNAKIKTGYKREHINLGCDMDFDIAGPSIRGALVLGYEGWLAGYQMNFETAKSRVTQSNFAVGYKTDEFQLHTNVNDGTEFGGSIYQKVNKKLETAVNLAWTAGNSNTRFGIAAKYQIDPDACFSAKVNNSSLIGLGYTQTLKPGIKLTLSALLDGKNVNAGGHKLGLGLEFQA

[2] = system: A549; assay: Induction of ferroptosis in human A549 cells assessed as increase in malondialdehyde content; type: functional, cell-based
[3] = system: A549; assay: Downregulation of TMBIM6 protein expression in human A549 cells at 10 uM by Western blot analysis; type: functional, cell-based
[4] = system: A549; assay: Activation of Nrf2-Keap1-HO-1 signaling pathway in human A549 cells assessed as increase in oxidative stress by measuring lipid ROS level at 10 to 20 uM by Western blot analysis; type: cell-based; conditions: filed as activator, dose 10-20 µM
[5] = system: A549; assay: Antiproliferative activity against human A549 cells assessed as inhibition of cell growth incubated for 24 to 72 hrs by CCK8 assay; type: functional, cell-based
[6] = molecular target: T1, Cystine/glutamate transporter (Homo sapiens) (UniProt Q9UPY5); assay: Inhibition of SLC7A11 in human […] cells at 10 to 20 uM by Western blot analysis; type: cell-based; conditions: A549, dose 10-20 µM
T1 sequence (whole entry): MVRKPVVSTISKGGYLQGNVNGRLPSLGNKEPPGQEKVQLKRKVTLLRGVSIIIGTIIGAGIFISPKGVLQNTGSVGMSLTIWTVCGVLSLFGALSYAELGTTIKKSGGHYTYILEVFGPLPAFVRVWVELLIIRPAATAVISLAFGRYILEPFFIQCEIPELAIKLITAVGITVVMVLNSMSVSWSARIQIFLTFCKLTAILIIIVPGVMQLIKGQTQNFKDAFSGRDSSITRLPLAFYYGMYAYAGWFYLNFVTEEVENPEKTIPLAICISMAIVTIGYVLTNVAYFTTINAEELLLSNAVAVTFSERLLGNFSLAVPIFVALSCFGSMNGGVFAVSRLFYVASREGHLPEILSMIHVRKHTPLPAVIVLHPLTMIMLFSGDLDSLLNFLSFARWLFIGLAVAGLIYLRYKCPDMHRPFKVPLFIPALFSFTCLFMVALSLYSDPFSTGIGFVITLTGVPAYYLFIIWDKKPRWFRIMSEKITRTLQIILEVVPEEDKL

[7] = system: Cell membrane; assay: Induction of mitochondrial membrane depolarization in human A549 cells assessed as increases in mitochondrial Ca2+ concentration by Rhod-2 AM probe based flow cytometric analysis; type: cell membranes
[8] = Selectivity index, ratio of IC50 for cytotoxicity against human BEAS-2B cells to IC50 for antiproliferative activity against human A549 cells; type: toxicity, cell-based; conditions: read-out: Ratio IC50
[9] = system: A549; assay: Induction of ferroptosis in human A549 cells assessed as increase in […] accumulation; type: functional, cell-based
[10] = system: A549; assay: Increase in Ca2+ level in human A549 cell cytoplasm at 5 to 20 uM incubated for 8 hrs by confocal photographic analysis; type: functional, cell-based; conditions: dose 5-20 µM
[11] = system: A549; assay: Induction of ferroptosis in human A549 cells assessed as reduction in GSH content incubated for 2 to 12 hrs; type: functional, cell-based; conditions: time 2-12 hrs
[12] = molecular target: Bax inhibitor 1 (Homo sapiens) (UniProt P55061); assay: Thermal stabilization of TMBIM6 in human A549 cells at 54 to 60 degreeC at 100 uM incubated for 2 hrs by CETSA based Western blot analysis; type: cell-based
Bax inhibitor 1 (Homo sapiens), sequence (P55061 whole entry): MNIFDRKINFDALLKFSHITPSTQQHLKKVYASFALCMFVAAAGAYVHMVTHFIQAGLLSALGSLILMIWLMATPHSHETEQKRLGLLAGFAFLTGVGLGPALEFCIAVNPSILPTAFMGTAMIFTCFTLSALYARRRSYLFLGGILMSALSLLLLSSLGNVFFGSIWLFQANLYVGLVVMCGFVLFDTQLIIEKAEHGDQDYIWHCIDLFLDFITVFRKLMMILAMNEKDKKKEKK

[13] = system: Cell membrane; assay: Induction of mitochondrial membrane depolarization in human A549 cells assessed as increases in mitochondrial Ca2+ concentration incubated for 8 hrs by Rhod-2 AM probe based flow cytometric analysis; type: cell membranes
[14] = system: A549; assay: Induction of autophagy in human A549 cells assessed as effect on LC3II protein expression at 10 to 20 uM incubated for 24 hrs by Western blot analysis; type: functional, cell-based; conditions: dose 10-20 µM
[15] = system: A549; assay: Induction of TMBIM6-VDAC1 protein-protein interaction in human A549 cells at 20 uM by immunoprecipitation analysis; type: cell-based; conditions: filed as activator
[16] = system: NCI-H460; assay: Antiproliferative activity against human NCI-H460 cells assessed as inhibition of cell growth incubated for 24 to 72 hrs by CCK8 assay; type: functional, cell-based
[17] = system: HepG2; assay: Antiproliferative activity against human HepG2 cells assessed as inhibition of cell growth incubated for 24 to 72 hrs by CCK8 assay; type: functional, cell-based
[18] = system: Cell membrane; assay: Induction of mitochondrial membrane potential loss in human A549 cells at 10 to 20 uM incubated for 6 hrs by JC-1 staining based flow cytometric analysis; type: cell membranes; conditions: dose 10-20 µM
[19] = molecular target: Bax inhibitor 1 (Homo sapiens) (UniProt P55061); assay: Thermal stabilization of TMBIM6 in human A549 cells at 46 to 60 degreeC at 100 uM incubated for 2 hrs by CETSA based Western blot analysis; type: cell-based
[20] = system: A549; assay: Induction of autophagy in human A549 cells assessed as effect on PINK1 protein expression at 10 to 20 uM incubated for 24 hrs by Western blot analysis; type: functional, cell-based; conditions: dose 10-20 µM
[21] = system: A549; assay: Antiproliferative activity against human A549 cells assessed as inhibition of cell growth incubated for 48 hrs by CCK8 assay; type: functional, cell-based; conditions: A549, 48 h
[22] = molecular target: Bax inhibitor 1 (Homo sapiens) (UniProt P55061); assay: Competitive binding affinity to TMBIM6 in human A549 cells in presence of 2 to 6 fold of 13-oxyingenol dodecanoate by immunofluorescence analysis; type: cell-based
[23] = system: A549; assay: Antiproliferative activity against human A549 cells assessed as inhibition of cell growth incubated for 24 hrs by CCK8 assay; type: functional, cell-based; conditions: A549, 24 h
[24] = molecular target: Bax inhibitor 1 (Homo sapiens) (UniProt P55061); assay: Binding affinity to TMBIM6 at Met-68 residue in human A549 cells by high-resolution mass spectrometric analysis; type: cell-based
[25] = molecular target: Bax inhibitor 1 (Homo sapiens) (UniProt P55061); assay: Competitive binding affinity to TMBIM6 in human A549 cells assessed as reduction in 13-oxyingenol dodecanoate binding to protein at 4 uM in presence of 6 fold 13-oxyingenol dodecanoate by pull down Western blot analysis; type: cell-based
[26] = molecular target: Bax inhibitor 1 (Homo sapiens) (UniProt P55061); assay: Binding affinity to TMBIM6 in human A549 cells at 4 uM by pull down Western blot analysis; type: cell-based
[27] = molecular target: Bax inhibitor 1 (Homo sapiens) (UniProt P55061); assay: Binding affinity to TMBIM6 in human A549 cells assessed as increase in co-localization in cytoplasm at 4 uM by immunofluorescence analysis; type: cell-based
[28] = molecular target: T1, Cystine/glutamate transporter (Homo sapiens); assay: Inhibition of SLC7A11 in human […] cells at 5 to 20 uM by Western blot analysis; type: cell-based; conditions: A549, dose 5-20 µM
[29] = system: A549; assay: Induction of lipid ROS accumulation in human A549 cells at 20 uM incubated for 24 hrs in presence of Fer-1 by DCFH/C11-BODIPY probe based flow cytometric analysis; type: functional, cell-based
[30] = system: A549; assay: Stabilization of […] in human A549 cells assessed as reduction in polyubiquitination at 20 uM in presence of MG132 by immunoprecipitation analysis; type: cell-based
[31] = system: A549; assay: Induction of autophagy in human A549 cells assessed as effect on LC3II protein expression upto 20 uM incubated for 24 hrs by Western blot analysis; type: functional, cell-based
[32] = system: A549; assay: Induction of lipid ROS accumulation in human A549 cells at 20 uM incubated for 24 hrs in presence of NAC by DCFH/C11-BODIPY probe based flow cytometric analysis; type: functional, cell-based
[33] = molecular target: Bax inhibitor 1 (Homo sapiens) (UniProt P55061); assay: Binding affinity to TMBIM6 in human A549 cells by cluster analysis; type: cell-based
[34] = system: A549; assay: Induction of ROS accumulation in human A549 cells incubated for 24 hrs by DCFH/C11-BODIPY probe based flow cytometric analysis; type: functional, cell-based; conditions: dose 5-20 µM
[35] = system: A549; assay: Induction of autophagy in human A549 cells assessed as effect on PINK1 protein expression upto 20 uM incubated for 24 hrs by Western blot analysis; type: functional, cell-based
[36] = system: A549; assay: Induction of lipid ROS accumulation in human A549 cells at 20 uM incubated for 24 hrs in presence of DFO by DCFH/C11-BODIPY probe based flow cytometric analysis; type: functional, cell-based
[37] = system: A549; assay: Induction of ferroptosis in human A549 cells assessed as increase in malondialdehyde content at 5 to 20 uM; type: functional, cell-based; conditions: dose 5-20 µM
[38] = system: A549; assay: Activation of Nrf2-Keap1-HO-1 signaling pathway in human A549 cells assessed as increase in oxidative stress by measuring lipid ROS level at 5 to 20 uM by Western blot analysis; type: cell-based; conditions: filed as activator, dose 5-20 µM
[39] = system: A549; assay: Induction of autophagy in human A549 cells incubated for 12 hrs by MDC staining based flow cytometric analysis; type: functional, cell-based
[40] = system: A549; assay: Induction of lipid ROS accumulation in human A549 cells at 20 uM incubated for 24 hrs in presence of Lip-1 by DCFH/C11-BODIPY probe based flow cytometric analysis; type: functional, cell-based
[41] = system: A549; assay: Induction of ROS accumulation in human A549 cells at 20 uM by DCFH/C11-BODIPY probe based flow cytometric analysis; type: functional, cell-based; conditions: time 2-24 hrs, TDE = time-dependent effect

Compound: CCCCCCCCCCCC(=O)O[C@@]12C[C@@H](C)[C@]34C=C(C)[C@H](OC(=O)NCCC)[C@@]3(O)[C@H](O)C(CO)=C[C@H](C4=O)[C@@H]1C2(C)C
- Activity [1]: Active
- Activity [2]: Active
- Activity [3]: Active
- Activity [4]: Active
- IC50 [5]: 4.7 µM
- inhibition [6]: Active
- Activity [7]: Active
- selectivity ratio [8]: 10.6
- Activity [9]: Active
- Activity [10]: Active
- Activity [11]: Active
- Activity [12]: Active
- Activity [13]: Active
- Activity [14]: Active
- Activity [15]: Active
- IC50 [16]: 8.5 µM
- IC50 [17]: 21.4 µM
- Activity [18]: Active
- Activity [19]: Active
- Activity [20]: Active

Compound: C#CCCC1(CCNC(=O)O[C@H]2C(C)=C[C@]34C(=O)[C@@H](C=C(CO)[C@@H](O)[C@]23O)[C@@H]2C(C)(C)[C@]2(OC(=O)CCCCCCCCCCC)C[C@H]4C)N=N1
- IC50 [21]: 13.8 µM
- Activity [22]: Active
- IC50 [23]: 8.1 µM
- Activity [24]: Active
- Activity [25]: Active
- Activity [26]: Active
- Activity [27]: Active

Compound: CCCCCCCCCCCC(=O)O[C@@]12C[C@@H](C)[C@]34C=C(C)[C@H](OC(=O)c5ccc(F)cc5)[C@@]3(O)[C@H](O)C(CO)=C[C@H](C4=O)[C@@H]1C2(C)C
- Activity [1]: Active
- Activity [2]: Active
- Activity [3]: Active
- Activity [4]: Active
- IC50 [5]: 2.6 µM
- inhibition [6]: Active
- Activity [7]: Active
- selectivity ratio [8]: 19.8
- Activity [9]: Active
- Activity [10]: Active
- Activity [11]: Active
- Activity [12]: Active
- Activity [13]: Active
- Activity [14]: Active
- Activity [15]: Active
- IC50 [16]: 20.8 µM
- IC50 [17]: 21.1 µM
- Activity [18]: Active
- Activity [19]: Active
- Activity [20]: Active

Compound: CCCCCCCCCCCC(=O)O[C@@]12C[C@@H](C)[C@]34C=C(C)[C@H](OC(=O)c5ccc([N+](=O)[O-])cc5)[C@@]3(O)[C@H](O)C(COC(=O)c3ccc([N+](=O)[O-])cc3)=C[C@H](C4=O)[C@@H]1C2(C)C
- Activity [1]: Active
- Activity [2]: Active
- Activity [3]: Active
- Activity [4]: Active
- IC50 [5]: 6.1 µM
- inhibition [6]: Active
- Activity [7]: Active
- selectivity ratio [8]: 8.2
- Activity [9]: Active
- Activity [10]: Active
- Activity [11]: Active
- Activity [12]: Active
- Activity [13]: Active
- Activity [14]: Active
- Activity [15]: Active
- IC50 [16]: 1 µM
- IC50 [17]: > 50 µM
- Activity [18]: Active
- Activity [19]: Active
- Activity [20]: Active

Compound: CCCCCCCCCCCC(=O)O[C@@]12C[C@@H](C)[C@]34C=C(C)[C@H](O)[C@@]3(O)[C@H](O)C(CO)=C[C@H](C4=O)[C@@H]1C2(C)C
- inhibition [28]: Active
- Activity [29]: inactive
- IC50 [21]: 17.5 µM
- Activity [1]: Active
- Activity [30]: Active
- Activity [31]: Active
- Activity [32]: inactive
- Activity [3]: Active
- Activity [33]: Active
- IC50 [5]: 3.9 µM
- IC50 [23]: 8.67 µM
- Activity [7]: Active
- selectivity ratio [8]: 11.1
- Activity [9]: Active
- Activity [10]: Active
- Activity [34]: Dose-Dependent Effect
- Activity [35]: Active
- Activity [11]: Active
- Activity [36]: inactive
- Activity [12]: Active
- Activity [37]: Active
- Activity [38]: Active
- Activity [39]: Dose-Dependent Effect
- Activity [13]: Active
- Activity [40]: inactive
- Activity [15]: Active
- IC50 [16]: 7 µM
- IC50 [17]: 5.3 µM
- Activity [41]: Tde
- Activity [19]: Active
